Assays:
Format in all cases: binding
[1] = target: T1, human galectin-8N (N-terminal domain) (Homo sapiens, UniProt O00214); assay: competitive fluorescence polarization assay, galectin-8N; conditions: Table 2, average and SEM, PBS
T1 construct: 4N (N-terminal domain) 4C (C-terminal domain), 7, 8N, 8C, 9N, and 9C; made in house
T1 sequence (O00214 19-152 limits assumed): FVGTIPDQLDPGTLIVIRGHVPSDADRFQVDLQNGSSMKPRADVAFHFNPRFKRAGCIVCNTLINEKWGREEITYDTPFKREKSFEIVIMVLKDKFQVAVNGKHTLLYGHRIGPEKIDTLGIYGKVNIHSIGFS
Excerpt: (§1) Human galectin-1 [25], galectin-2 [26], galectin-3 [27], galectin-4N [19], galectin-4C [19], galectin-8N [28], galectin-8C [28], galectin-9N [29], and galectin-9C [30], were expressed and purified as described earlier. Human galectin-7 was expressed using a pET3c plasmid in E. coli BL21-star. The plasmid containing expression optimized DNA encoding the full human galectin-7 sequence (NCBI Reference Sequence: NP_002298.1) was obtained from GenScript (Piscataway, NJ, USA). […] Lactose was removed by chromatography on a PD-10 column (Amersham Biosciences) with repeated ultrafiltration with Centriprep (Amicon).
(§2) Fluorescence polarization experiments were carried out either with a POLARStar plate reader and FLUOstar Galaxy software or with a PheraStarFS plate reader and PHERAstar Mars version 2.10 R3 software (BMG, Offenburg, Germany). The dissociation constant (Kd) values were determined in PBS as described earlier. Specific conditions for galectin-1, 2, 3, 4N, 4C, 8N, 8C, 9N, and 9C were kept as reported. Experiments were performed at room temperature with human galectin-7 at 5 µM and the fluorescent probe β-D-galactopyranosyl-(1–4)-2-acetamido-2-deoxy-β-d-glucopyranosyl-(1–3)-β-d-galactopyranosyl-(1–4)-(N1-fluorescein-5-yl-carbonylaminomethylcarbonyl)-β-D-glucopyranosylamine at 0.02 µM. All the compounds in Table 1 except 32 were dissolved in a neat DMSO at 100 mM and diluted in PBS to three to six different concentrations to be tested in duplicate.

[2] = target: T2, human galectin-3 (Homo sapiens, UniProt P17931); assay: competitive fluorescence polarization assay, galectin-3; conditions: Table 2; average and SEM; PBS
T2 construct: made in house; host or cells: vector pET3c (the same vector as galectin-7)
Excerpt: as §1, §2

[3] = target: T3, human galectin-9N (N-terminal domain) (Homo sapiens, UniProt O00182); assay: competitive fluorescence polarization assay, galectin-9N; conditions: Table 2, average and SEM, PBS
T3 construct: 4N (N-terminal domain) 4C (C-terminal domain), 7, 8N, 8C, 9N, and 9C; made in house
Excerpt: (§3) Human galectin-1 [25], galectin-2 [26], galectin-3 [27], galectin-4N [19], galectin-4C [19], galectin-8N [28], galectin-8C [28], galectin-9N [29], and galectin-9C [30], were expressed and purified as described earlier. Human galectin-7 was expressed using a pET3c plasmid in E. coli BL21-star. The plasmid containing expression optimized DNA encoding the full human galectin-7 sequence (NCBI Reference Sequence: NP_002298.1) was obtained from GenScript (Piscataway, NJ, USA). Bacterial culture and induction, and galectin purification was essential as described for galectin-3 expressed with the same vector [27]; a typical yield was 1.5–2 mg/L culture. Lactose was removed by chromatography on a PD-10 column (Amersham Biosciences) with repeated ultrafiltration with Centriprep (Amicon).
as §2

[4] = target: T4, human galectin-9C (C-terminal domain) (Homo sapiens, UniProt O00182); assay: competitive fluorescence polarization assay, galectin-9C; conditions: Table 2, average and SEM, PBS
T4 construct: 4N (N-terminal domain) 4C (C-terminal domain), 7, 8N, 8C, 9N, and 9C; made in house
Excerpt: as §1, §2

[5] = target: T5, human galectin-8C (C-terminal domain) (Homo sapiens, UniProt O00214); assay: competitive fluorescence polarization assay, galectin-8C; conditions: Table 2, average and SEM, PBS
T5 construct: 4N (N-terminal domain) 4C (C-terminal domain), 7, 8N, 8C, 9N, and 9C; made in house
T5 sequence (O00214 187-317 limits assumed): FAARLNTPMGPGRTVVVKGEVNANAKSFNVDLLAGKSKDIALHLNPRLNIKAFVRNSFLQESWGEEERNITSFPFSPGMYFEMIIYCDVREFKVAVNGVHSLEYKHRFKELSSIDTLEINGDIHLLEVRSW
Excerpt: as §1, §2

[6] = target: T6, human galectin-7 (Homo sapiens, UniProt P47929); assay: competitive fluorescence polarization assay, galectin-7; conditions: Table 2; average and SEM; PBS, room temperature, galectin-7 at 5 µM, probe 0.02 µM
T6 construct: made in house; host or cells: E. coli BL21-star, pET3c plasmid (DNA from GenScript)
Excerpt: as §3, §2

[7] = target: T7, human galectin-4C (C-terminal domain) (Homo sapiens, UniProt P56470); assay: competitive fluorescence polarization assay, galectin-4C; conditions: Table 2, average and SEM, PBS
T7 construct: 4N (N-terminal domain) 4C (C-terminal domain); made in house
T7 sequence (P56470 194-323 limits assumed): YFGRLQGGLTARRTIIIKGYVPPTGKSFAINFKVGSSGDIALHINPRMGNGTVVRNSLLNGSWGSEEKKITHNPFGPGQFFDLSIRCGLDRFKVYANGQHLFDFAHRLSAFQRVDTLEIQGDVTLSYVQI
Excerpt: as §1, §2

[8] = target: T8, human galectin-1 (Homo sapiens, UniProt P09382); assay: competitive fluorescence polarization assay, galectin-1; conditions: for Kd: Table 2, average and SEM of 4–8 single-triple point measurements, PBS
T8 construct: made in house
Excerpt: as §1, §2

[9] = target: T9, human galectin-2 (Homo sapiens, UniProt P05162); assay: competitive fluorescence polarization assay, galectin-2; conditions: Table 2; average and SEM; PBS
T9 construct: made in house
T9 sequence (P05162 1-132): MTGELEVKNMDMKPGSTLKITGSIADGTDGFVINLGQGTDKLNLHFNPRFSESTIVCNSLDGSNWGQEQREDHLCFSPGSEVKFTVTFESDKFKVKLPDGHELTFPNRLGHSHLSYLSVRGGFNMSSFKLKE
Excerpt: as §3, §2

[10] = target: T10, human galectin-4N (N-terminal domain) (Homo sapiens, UniProt P56470); assay: competitive fluorescence polarization assay, galectin-4N; conditions: Table 2; N-terminal domain; average and SEM; PBS
T10 construct: 4N (N-terminal domain) 4C (C-terminal domain); made in house
T10 sequence (P56470 19-150 limits assumed): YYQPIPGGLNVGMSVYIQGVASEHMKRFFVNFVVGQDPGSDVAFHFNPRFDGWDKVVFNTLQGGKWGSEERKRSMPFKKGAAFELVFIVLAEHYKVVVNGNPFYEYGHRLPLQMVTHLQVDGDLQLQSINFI
Excerpt: as §3, §2

T4 sequence (O00182 227-355 limits assumed): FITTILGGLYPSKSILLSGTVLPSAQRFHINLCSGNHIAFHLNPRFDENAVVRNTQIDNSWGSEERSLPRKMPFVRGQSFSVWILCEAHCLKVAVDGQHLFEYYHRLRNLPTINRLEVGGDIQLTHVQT
T2 sequence (P17931 whole entry): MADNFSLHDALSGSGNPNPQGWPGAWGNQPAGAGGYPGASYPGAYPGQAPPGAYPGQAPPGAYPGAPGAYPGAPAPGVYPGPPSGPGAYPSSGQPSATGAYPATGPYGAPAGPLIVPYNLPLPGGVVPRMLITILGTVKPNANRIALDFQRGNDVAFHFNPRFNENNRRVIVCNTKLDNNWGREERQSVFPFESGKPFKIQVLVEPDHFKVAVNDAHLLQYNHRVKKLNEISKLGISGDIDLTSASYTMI
T8 sequence (P09382 whole entry): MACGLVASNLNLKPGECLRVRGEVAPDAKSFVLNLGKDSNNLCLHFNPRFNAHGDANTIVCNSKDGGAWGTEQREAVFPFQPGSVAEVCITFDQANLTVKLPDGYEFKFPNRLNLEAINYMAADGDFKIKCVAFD
T3 sequence (O00182 17-148 limits assumed): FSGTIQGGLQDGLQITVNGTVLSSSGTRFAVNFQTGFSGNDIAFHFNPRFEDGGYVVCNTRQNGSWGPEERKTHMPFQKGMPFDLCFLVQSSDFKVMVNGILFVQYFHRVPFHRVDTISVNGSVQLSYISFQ
T6 sequence (P47929 whole entry): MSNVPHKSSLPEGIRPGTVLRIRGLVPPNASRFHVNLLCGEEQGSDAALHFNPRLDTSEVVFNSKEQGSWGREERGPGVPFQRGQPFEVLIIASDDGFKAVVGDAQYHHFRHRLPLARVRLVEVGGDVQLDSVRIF

Row | Structure (SMILES) | Kd [1] | Kd [2] | Kd [3] | Kd [4] | Kd [5] | Kd [6] | Kd [7] | Kd [8] | Kd [9] | Kd [10] | fold better affinity for galectin-1 than reference methyl β-D-galactopyranoside 32 ([8]; ratio of Kd values) | binding to galectin-1 (in words) ([8]; under the assay conditions)
1 | CO[C@@H]1O[C@H](CO)[C@H](O)[C@H](CNC(=O)c2cc(F)c(F)c(F)c2)[C@H]1O [Compound 7f, Methyl 3-Deoxy-3-C-(3,4,5-Trifluorobenzamidomethyl)-β-D-Galactopyranoside] | > 4 mM | > 4 mM | > 4 mM | > 4 mM | > 4 mM | > 4 mM | > 4 mM | 2.5 ± 0.4 mM | > 4 mM | > 4 mM | – | –
2 | COc1cccc(C(=O)NC[C@H]2[C@@H](O)[C@@H](CO)O[C@@H](OC)[C@@H]2O)c1 [Compound 7h, Methyl 3-Deoxy-3-C-(3-Methoxybenzamidomethyl)-β-D-Galactopyranoside] | > 4 mM | > 4 mM | > 4 mM | > 4 mM | > 4 mM | > 4 mM | > 4 mM | 3.2 ± 0.5 mM | > 4 mM | > 4 mM | – | –
3 | CO[C@@H]1O[C@H](CO)[C@H](O)[C@H](CNC(=O)c2ccc(C)cc2)[C@H]1O [Compound 7i, Methyl 3-Deoxy-3-C-(p-Toluamidomethyl)-β-D-Galactopyranoside] | > 4 mM | > 4 mM | > 4 mM | > 4 mM | > 4 mM | > 4 mM | > 4 mM | 2.3 ± 0.4 mM | > 4 mM | > 4 mM | – | –
4 | CO[C@@H]1O[C@H](CO)[C@H](O)[C@H](CNC(=O)c2ccc(-c3ccccc3)cc2)[C@H]1O [Compound 7l, Methyl 3-Deoxy-3-C-(4-Phenylbenzamidomethyl)-β-D-Galactopyranoside] | > 4 mM | > 4 mM | > 4 mM | > 4 mM | > 4 mM | > 4 mM | > 4 mM | > 4 mM | > 4 mM | > 4 mM | – | did not bind

Now from value to compound:

Row | Kd [1] | Kd [2] | Kd [3] | Kd [4] | Kd [5] | Kd [6] | Kd [7] | Kd [8] | Kd [9] | Kd [10] | fold better affinity for galectin-1 than reference methyl β-D-galactopyranoside 32 ([8]; ratio of Kd values) | binding to galectin-1 (in words) ([8]; under the assay conditions) | Structure (SMILES)
5 | > 4 mM | 1.6 ± 0.03 mM | > 4 mM | > 4 mM | > 4 mM | > 4 mM | > 4 mM | 1.7 ± 0.06 mM | > 4 mM | 1.7 ± 0.07 mM | – | – | CO[C@@H]1O[C@H](CO)[C@H](O)[C@H](CNC(=O)c2ccc(F)cc2)[C@H]1O [Compound 7e, Methyl 3-Deoxy-3-C-(4-Fluorobenzamidomethyl)-β-D-Galactopyranoside]
6 | > 4 mM | > 4 mM | > 4 mM | > 4 mM | > 4 mM | > 4 mM | > 4 mM | 0.7 ± 0.005 mM | > 4 mM | > 4 mM | 14 fold | – | CO[C@@H]1O[C@H](CO)[C@H](O)[C@H](CNC(=O)c2c(F)c(F)c(F)c(F)c2F)[C@H]1O [Compound 7g, Methyl 3-Deoxy-3-C-(2,3,4,5,6-Pentafluorobenzamidomethyl)-β-D-Galactopyranoside]
7 | > 4 mM | > 4 mM | > 4 mM | > 4 mM | 2.6 ± 0.6 mM | > 4 mM | > 4 mM | 1.8 ± 0.04 mM | > 4 mM | 2 ± 0.4 mM | – | – | COc1cc(OC)cc(C(=O)NC[C@H]2[C@@H](O)[C@@H](CO)O[C@@H](OC)[C@@H]2O)c1 [Compound 7j, Methyl 3-Deoxy-3-C-(3,5-Dimethoxybenzamidomethyl)-β-D-Galactopyranoside]
8 | > 4 mM | > 4 mM | > 4 mM | > 4 mM | > 4 mM | > 4 mM | > 4 mM | 1.8 ± 0.07 mM | > 4 mM | 1.9 ± 0.1 mM | – | – | CO[C@@H]1O[C@H](CO)[C@H](O)[C@H](CNC(=O)c2cccc(C(F)(F)F)c2)[C@H]1O [Compound 7k, Methyl 3-Deoxy-3-C-(3-Trifluoromethylbenzamidomethyl)-β-D-Galactopyranoside]
